Results reported in US12383523B2, “Magnetic resonance imaging drug containing deuterated sarcosine, and diagnostic method using said drug” (LIMITED LIABILITY COMPANY “SOLVEX” (“SOLVEX” LLC), priority 2018, dated 2025).

Assays:
[1] = freely diffusing deuterated compound
Excerpt: In this case, the pharmacokinetics in a non-obvious way depends on a dose used (in particular, an excess of the renal reabsorption capacity for a particular compound can lead to its accelerated excretion). At that, the dose is limited by the toxicity and solubility of this compound.

[2] = up to the replacement of 10-30% of water in the body; cited from earlier work
[3] = Excerpt: An important property of the deuterated component (sarcosine) of the diagnostic drug of the invention is sufficient resistance to metabolic exchange of deuterium for protium in vivo. This exchange lowers the concentration of the deuterium label, while simultaneously increasing the background signal of heavy water (DOH), which is evenly distributed throughout the body due to rapid diffusion. This process leads to a decrease in the contrast of the image, and also prevents quantitive evaluation of deuterated component concentration by comparison with the intensity of natural DOH signal.
[4] = Solubility in water for injection; type: physicochemical; details: limits the dose to 10 mg in 1.0 ml
4T1 breast carcinoma = test: Deuterium tomography (2H MRI) of mice with 4T1 breast carcinoma after injection of the deuterated compound; details: 10 mg intraperitoneally in 1.0 ml water, 20 g mouse
Protocol: The deuterium tomogram was recorded using FLASH (Fast low angle shot) pulse sequence. The excitation frequency was determined from the ^2H NMR spectrum and was on the instrument used: sfo1≈46.17452 MHz, rectangular excitation pulse 2560 Hz wide and 11.2 dB power, deflection angle FA=30°, repetition time TR=11.8 ms, echo time TE=4.07 ms, scan region10 cm×10 cm, scan matrix 50×50, slice thickness 3 cm, bandwidth 12500 Hz, total scan time 9 minutes 34 seconds (1024 accumulations).
In this example, experiments were performed on Balb/c mice grafted with 4T1 breast carcinoma (injection of 5×10^5 cells/60 μI under the left forepaw 12 days before the experiment). […] In 10 minutes after the injection, the animal was immobilized with isoflurane and placed on a heated bed in a tomograph.
An animal weighing 20 g was injected intraperitoneally with a solution:

[5] = high doses, prior art; cited from earlier work

[2H]O[2H] [D2O]
selective accumulation in various organs and tissues of a subject [1]: do not show selective accumulation

[2H]O [DOH]
toxicity [2]: non-toxic in very high doses

[2H]C([2H])([2H])[C@H](N)C(=O)O [L-alanine-3,3,3-d3]
loss of deuterium in vivo (exchange of deuterium for protium) [3]: lose deuterium in vivovery quickly

[2H]c1c([2H])c([2H])c(C([2H])([2H])[C@H](N)C(=O)O)c([2H])c1[2H] [L-phenylalanine-β, β, 2,3,4,5,6-d7]
solubility [4]: low solubility | accumulation in tumor tissue (4T1 breast carcinoma): do not accumulate in tumor tissue | accumulation selectivity in various organs (4T1 breast carcinoma): do not show accumulation selectivity

[2H]C([2H])(N)C(=O)O [glycine-2,2-d2]
loss of deuterium in vivo (exchange of deuterium for protium) [3]: lose deuterium in vivovery quickly

CNCC(=O)O [sarcosine]
LD50 [5]: > 5000 mg/kg
